# Laboratory results: ChEMBL document CHEMBL5375953, “Discovery of Biaryl Amide Derivatives as Potent, Selective, and Orally Bioavailable RORγt Agonists for Cancer Immunotherapy” (J Med Chem, 2023)
# How the values were obtained:
# [1] = biological target: T1, Nuclear receptor ROR-alpha (Homo sapiens, UniProt P35398); assay: Agonist activity at human Gal4-fused RORalpha expressed in HEK293T cells assessed as luciferase activity incubated for 16 to 20 hrs by Luciferase reporter gene assay; type: cell-based
# T1 sequence (P35398 whole entry): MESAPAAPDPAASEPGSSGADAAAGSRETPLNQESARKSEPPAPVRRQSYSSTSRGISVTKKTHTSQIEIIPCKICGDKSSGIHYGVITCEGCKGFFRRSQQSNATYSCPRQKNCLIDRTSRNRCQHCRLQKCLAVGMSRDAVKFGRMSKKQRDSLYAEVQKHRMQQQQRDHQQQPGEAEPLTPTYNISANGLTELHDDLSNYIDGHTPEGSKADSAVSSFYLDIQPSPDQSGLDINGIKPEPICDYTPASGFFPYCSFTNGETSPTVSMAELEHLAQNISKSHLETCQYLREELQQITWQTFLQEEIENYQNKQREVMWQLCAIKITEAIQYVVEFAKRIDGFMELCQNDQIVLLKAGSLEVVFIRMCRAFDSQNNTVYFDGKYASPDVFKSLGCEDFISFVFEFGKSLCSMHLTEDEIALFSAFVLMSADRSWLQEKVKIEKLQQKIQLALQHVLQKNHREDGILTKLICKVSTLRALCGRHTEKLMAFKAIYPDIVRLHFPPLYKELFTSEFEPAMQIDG
# B16-F10 [2] = assay: Antitumor activity against mouse B16-F10 cells xenografted in C57BL/6 mouse assessed as tumor growth inhibition at 25 mg/kg,ip administrated on day 7 for 8 days relative to control; type: functional; conditions: B16-F10, 192 h, time 8 day, read-out: TGI
# [3] = Oral bioavailability in rat at 5 mg/kg administration measured after 24 hrs by LC-MS/MS analysis; type: ADME, organism-based; conditions: in vivo
# [4] = Metabolic Stability in rat liver microsome assessed as half life at […] measured upto 60 mins by HPLC-MS/MS analysis; type: ADME; conditions: liver microsomes
# [5] = Metabolic Stability in mouse liver microsome assessed as microsomal intrinsic clearance at […] measured upto 60 mins by HPLC-MS/MS analysis; type: ADME; conditions: liver microsomes, read-out: CLH
# [6] = Oral bioavailability in CD-1 mouse at 5 mg/kg administration measured after 24 hrs by LC-MS/MS analysis; type: ADME, organism-based; conditions: in vivo
# [7] = Cmax in dog at 2 mg/kg,po administration measured after 24 hrs by LC-MS/MS analysis; type: ADME, organism-based, Canis lupus familiaris; set-up: dose 2 mg/kg, time 24 hrs, route po; conditions: in vivo
# [8] = Antitumor activity against mouse Lung adenocarcinoma cell line xenografted in C57BL/6 mouse assessed as tumor growth inhibition at 25 mg/kg,ip administrated on day 7 for 12 days relative to control; type: functional; conditions: 288 h, time 12 day, read-out: TGI
# [9] = Metabolic Stability in cynomolgus monkey liver microsome assessed as half life at […] measured upto 60 mins by HPLC-MS/MS analysis; type: ADME, Macaca fascicularis; conditions: liver microsomes
# [10] = Metabolic Stability in dog liver microsome assessed as microsomal intrinsic clearance at […] measured upto 60 mins by HPLC-MS/MS analysis; type: ADME, Canis lupus familiaris; conditions: liver microsomes, read-out: CLH
# B16-F10 [11] = assay: Antitumor activity against mouse B16-F10 cells xenografted in C57BL/6 mouse assessed as tumor growth inhibition at 100 mg/kg,ip administrated on day 7 for 8 days relative to control; type: functional; conditions: B16-F10, 192 h, time 8 day, read-out: TGI
# [12] = Metabolic Stability in dog liver microsome assessed as intrinsic clearance at […] measured upto 60 mins by HPLC-MS/MS analysis; type: ADME, Canis lupus familiaris; conditions: microsomes, 1 h
# [13] = Half life in dog at 2 mg/kg,po administration measured after 24 hrs by LC-MS/MS analysis; type: ADME, organism-based, Canis lupus familiaris; conditions: in vivo
# [14] = Volume of distribution at steady state in rat at 1 mg/kg,iv administration measured after 24 hrs by LC-MS/MS analysis; type: ADME, organism-based; conditions: in vivo, read-out: Vdss
# [15] = Toxicity against C57BL/6 mouse xenografted with mouse Lung adenocarcinoma cell line assessed as change in body weight at 50 mg/kg,ip administrated on day 7 for 12 days; type: organism-based; conditions: in vivo, 288 h, time 12 day
# [16] = Antitumor activity against mouse Lung adenocarcinoma cell line xenografted in C57BL/6 mouse assessed as tumor growth inhibition at 100 mg/kg,po administrated on day 7 for 12 days relative to control; type: functional; conditions: 288 h, time 12 day, read-out: TGI
# [17] = Metabolic Stability in rat liver microsome assessed as intrinsic clearance at […] measured upto 60 mins by HPLC-MS/MS analysis; type: ADME; conditions: microsomes, 1 h
smiles,measurement,setting,value
CCS(=O)(=O)c1ccc(CC(=O)Nc2cc(Cl)c(-c3ccc(OC(C)C)c(C#N)c3)c(Cl)c2)cc1,EC50,[1],> 10 µM
same,inhibition in vivo at 25 mg/kg,B16-F10 [2],51.6%
same,bioavailability,[3],39.4%
same,half-life,[4],> 2.42 h
same,microsomal CLint,[5],< 9.6 µL/min/mg
same,bioavailability,[6],90.3%
same,Cmax,[7],518 ng/mL
same,inhibition in vivo at 25 mg/kg,[8],46.2%
same,half-life,[9],0.518 h
same,microsomal CLint,[10],< 9.6 µL/min/mg
same,inhibition in vivo at 100 mg/kg,B16-F10 [11],77.9%
same,CLH,[12],< 13.8 µL/min/mg
same,half-life,[13],59.1 h
same,Vd,[14],2.8 L/kg
same,Activity,[15],Non-Toxic
same,inhibition in vivo at 100 mg/kg,[16],49.8%
same,CLH,[17],< 17.3 µL/min/mg
